Experimental data published in patent US20160243136A1, “PHARMACEUTICAL FORMULATIONS CONTAINING MITOCHONDRIALLY TARGETED ANTIOXIDANTS” (Mitotech SA, priority 2013, published 2016).
Entries after “also recorded” stand apart in the source; their conditions may differ.

How the values were obtained:
[1] = test system: renal tubular cells (RTC); experiment: In vitro inflammation model: renal tubular cells co-cultivated with bacterial lysate-activated leukocytes; type: cell-based, rat; details: for renal cell death (Annexin V-positive): 48 hr exposure to activated leukocytes, pre-incubation with drug; for TNF release in RTC-leukocyte co-culture: activated leukocytes (LC+BL)
Experimental: Kidneys from 1-3 day old rats were excised under aseptic conditions. The tissue was blended and dissociated by collagenase treatment (0.5%, 30 min at 37° C.). The final suspension was centrifuged for 5 min at 50 g. The pellet was resuspended in about 10 ml of DMEM/F12 (Gibco, USA) supplemented with 10% FCS (Gibco, USA) and kept for 2 min, after which the supernatant was transferred to another tube and the pellet was repeatedly resuspended. After 10 min, the renal tubules were pelleted and dissociated cells remaining in the suspension were discarded. The pellet was resuspended in DMEM/F12 with 10% FCS and seeded onto 24-well plates or onto coverslips placed in 35-mm glass-bottom Petri dishes.
E. coli strain No. 85 was cultured overnight in a cultivation medium containing 1% tryptone, 0.5% yeast extract and 1% NaCl (Sigma-Aldrich, USA). The medium, containing roughly 10^9 colony-forming units (CFU) per ml, was pelleted at 300 g for 3 min. The bacterial lysate was prepared by diluting 30 ml of an overnight (ON) culture and diluting the precipitate in 3 ml of 0.9% NaCl followed by autoclaving for 1.5 hr at 120° C.
5 ml heparinized blood collected from the jugular vein of adult male rats was carefully layered over 5 ml of Ficoll-Urografin (density of 1.077 g/cm^3), and centrifuged for 30 min at 200 g. This procedure results in erythrocyte pelleting, while the mononuclear fraction of leukocytes forms an interphase ring on the Ficoll surface, which was carefully collected. Leukocytes were transferred into another tube and centrifuged for 3 min at 200 g. The resultant pellet was resuspended in 5 ml of DMEM/F12. After cell counting in a hemocytometer, the cells were diluted to a final concentration of about 1×10^5 cells per ml.
In a two-day old renal cell culture, the medium was substituted with DMEM/F12 (400 μl per well, 1600 μl per dish), supplemented with (depending on the purpose): GSK-3β inhibitor LiCl (9 mM) (Sigma-Aldrich, USA), water-soluble antioxidant Trolox (50 μM, 100 μM) (Sigma-Aldrich, USA), MTAs 10-(6-plastoquinonyl)decyl-triphenylphosphonium (SkQ1), synthesized according to Antonenko et al. (2008) Biochemistry (Mosc) 73:1273-87), 10 nM, 100 nM), and 10-(6′-plastoquinonyl) decylrhodamine 19 SkQR1), synthesized according to Antonenko (2008), (1 nM, 10 nM, or 100 nM). Renal cells were incubated for 2 hr in this medium, followed by supplementation with leukocytes or neutrophils in DMEM/F12, or DMEM/F12, alone, in the control sample (400 μl per well, 1600 μl per dish). Simultaneously, the bacterial lysate or lipopolysaccharide (100 ng/ml, LPS, Sigma-Aldrich, USA) solution in DMEM/F12 and DMEM/F12 alone in the control sample (100 μl per well, 400 μl per dish) were added. Renal cells, leukocytes (neutrophils) were co-cultivated for 24 or 48 hr with bacterial lysate or LPS. Cell death (both necrotic and apoptotic) rate was evaluated using Annexin-V FITC Kit (Invitrogen, USA).
(§1) The ROS-sensitive fluorescent probe 2,7-DCF-DA (Molecular Probes, USA) dissolved in DMEM/F12 without bicarbonate (final concentration 10 μM) was added to renal cells (500 μl per well of 24-well plate, 2 ml per dish) and incubated for 15 min at 37° C. followed by a wash with DMEM/F12 without bicarbonate. MDA was determined as in (Mihara and Uchiyama (1978) Anal. Biochem. 86:271-8). Fluorescent probe, DAF-2-DA (Calbiochem, San Diego, Calif., USA) was used for NO determination in living cells. The procedure was the same as for 2,7-DCF-DA. The nitrite/nitrate concentration (as products of NO oxidation) in culture media was determined using Nitrite/Nitrate Assay Kit (Sigma-Aldrich, USA). TNFα was determined using the kit Rat TNFα ELISA Ready-SET-Go (Ebioscience, USA).
Renal cells were imaged with an LSM510 inverted confocal microscope (Carl Zeiss Inc., Jena, Germany) with excitation at 488 nm and emission collected at 500 nm-530 nm with a pinhole diameter of 150 μm. Images were processed using ImageJ software (NIH, Bethesda, Md., USA).

rat model of APN = experiment: In vivo rat model of acute pyelonephritis (APN), bacteria introduced in the bladder
Experimental: An in vivo experimental model of APN was used where bacteria are introduced in the bladder of rat (Gupta et al. (1995) J. Med. Microbiol. 43:33-36). Experiments were performed on outbred white female rats (180-200 g) fed ad libitum. Animal protocols were approved by the Institutional Review Boards. Rats were anesthetized with chloral hydrate (300 mg/kg, intraperitoneally(ip)). The animals were infected intraurethrally using a soft Intramedic non-radio-opaque polyethylene catheter (Clay Adams, USA). The inoculum (5 ml per kg, 1×10^8 CFU/ml of rat fecal bacterial composition) was injected slowly to avoid any leakage […]. Control animals were untreated. The therapeutic protocol of SkQR1 used to treat this pathology was as follows: […], with subsequent injections of the same amount of SkQR1 at 12, 24, 36 and 48 hrs; in total, each animal received 500 nmol SkQR1 per kg. […]
Kidney mitochondria were isolated by homogenization and differential centrifugation in a medium containing 250 mM sucrose, 20 mM HEPES-KOH, 1 mM EGTA and 0.1% BSA, pH7.4. Total mitochondrial protein was determined using a bicinchoninic acid protein assay kit (Sigma-Aldrich, USA). The mitochondria from cultured kidney cells were isolated by the same protocol.
as §1
The kidney was isolated immediately after sacrificing the animal and perfused with ice-cold PBS. It was then fixed in a 10% neutral buffered formalin solution, embedded in paraffin and used for histopathological examination. Five micrometer thick sections were cut, deparaffinized, hydrated, and stained with hematoxylin and eosin. The renal sections were examined in blinded fashion for inflammation and infiltration by leukocytes in the kidneys of all treated animals. A minimum of 10 fields for each kidney slide were examined and scored for pathologic severity.
The manifestation of inflammatory indicators (i.e., a number of infiltrated leukocytes in every layer and the presence of abscesses) under APN was evaluated using the following scale: 0, none; 1, 5-50 leukocytes in the view field; […]; 4, abscesses with pus-necrotic content. The distribution of inflammatory changes (i.e., comparative analysis of infiltration and abscesses) was evaluated by the following criteria: 0, none in any layer; 1, infiltration in the medullar layer; 2, infiltration reaching the cortex.
Kidney homogenates for MPO determination were centrifuged at 20000 g 15 min, the pellets were resuspended in 50 mM K-phosphate buffer containing 0.5% CTAB. Resulted samples were frozen and thawed three times and then centrifuged at 10600 g 10 min. Supernatants were analyzed for MPO activity in chromogenic reaction with o-phenylenediamine (OPD). 100 μl sample was mixed with 100 μl substrate buffer (25 mM Na-citrate, 50 mM Na-phosphate, 0.45 mg/ml OPD, 0.1% H2O2, pH 5.0) and was incubated 15 min at room temperature and then OD was detected at 492 nm.
Samples of kidney homogenates were loaded onto 15% Tris-glycine polyacrylamide gels (10-20 μg of total protein per lane). After electrophoresis, gels were blotted onto PVDF membranes (Amersham Pharmacia Biotech, UK). […]

## c1ccc2c(c1)[I+]c1ccccc1-2 [DPI, diphenyleneiodonium, reference compound]
[1]; 0.5 μM
  ROS production inside renal cells (DCF fluorescence): inhibited the ROS production

## [Cl-].[Li+] [LiCl, reference compound]
[1]
  renal cell death (Annexin V-positive): protected renal cells from death and its effect was more profound than of Trolox
  TNF release in RTC-leukocyte co-culture: did not have a significant effect
[1]; LiCl pre-treatment (9 mM)
  ROS production in renal cells (DCF fluorescence): had an antioxidative effect

## CC/N=c1/cc2oc3cc(NCC)c(C)cc3c(-c3ccccc3C(=O)OCCCCCCCCCCC3=CC(=O)C(C)=C(C)C3=O)c-2cc1C [SkQR1, 10-(6′-plastoquinonyl) decylrhodamine 19]
Rat model of APN; 3 days after infection, SkQR1
  number of leukocytes in the blood: prevented an elevation
Rat model of APN; SkQR1 100 nmoles/kg ip at 1, 12, 24, 36, 48 hr after bacteria
  abscesses in kidneys of pyelonephritic rats: significantly less prevalent
Rat model of APN; SkQR1 100 nmoles/kg ip x5
  MDA concentration in whole kidney tissue: significantly lower
Rat model of APN; SkQR1 100 nmoles/kg ip x5, histology
  leukocyte infiltration in all kidney layers and spreading of the inflammatory process: inhibited
Rat model of APN; SkQR1-treated pyelonephritic rats vs APN rats without SkQR1
  kidney tissue concentration of TNFα: lower than in APN rats without SkQR1
Rat model of APN; SkQR1-treated rats
  activation of pro-inflammatory signaling pathways in peripheral leukocytes: suppressed
  other inflammation markers in blood (FIG. 8A-8C): decreased
Rat model of APN; SkQR1 during first two days after infection
  animal survival: significantly greater
Rat model of APN; Western blot
  Bcl-2 changes in isolated kidney mitochondria (weaker 26 kD band, stronger 15 kD band): diminished
Rat model of APN; Western blot, lower in untreated pyelonephritic rats
  level of IKB in leukocytes: lower in untreated pyelonephritic rats but not in SkQR1-treated rats
Rat model of APN; Western blot, lowering seen with pyelonephritis
  Bcl-2 level in total kidney homogenates: absent in pyelonephritic rats receiving SkQR1
Rat model of APN; activated under APN
  expression of toll receptors in different regions of the kidney: normal expression
Rat model of APN; kidney, SkQR1 100 nmoles/kg ip x5
  tissue activity of myeloperoxidase (MPO), index of neutrophil infiltration: significantly inhibited
Rat model of APN; leukocytes from pyelonephritic rats receiving SkQR1 vs untreated
  ROS production (DCF fluorescence) in blood leukocytes: lower than in untreated animals
[1]; 10 nM, pretreatment 2 hr, co-cultivation with activated leukocytes
  ROS production in renal cells (DCF fluorescence): suppression of ROS production after co-cultivation with activated leukocytes to levels close to those observed on controls
[1]
  renal cell death (Annexin V-positive): more pronounced than that afforded by the traditional water-soluble antioxidant, Trolox; also recorded: highest efficiency
  TNF release in RTC-leukocyte co-culture: did not have a significant effect

## Cc1c(C)c2c(c(C)c1O)CCC(C)(C(=O)O)O2 (centres unmarked) [Trolox, reference compound]
[1]; 100 μM, pretreatment 2 hr, co-cultivation with activated leukocytes
  ROS production in renal cells (DCF fluorescence): suppression of ROS production after co-cultivation with activated leukocytes to levels close to those observed on controls
[1]
  TNF release in RTC-leukocyte co-culture: did not have a significant effect
